Measured values published in patent US11390631B1, “Benzodiazepine derivatives as RSV inhibitors” (priority 2015, dated 2022).
pEC50: −log10 of the molar value.

Tested on: Human RSV-A (“Long” strain)
Test: RSV-A assay: inhibition of cytopathic effect in Hep-2 cells, ATPlite readout
Type: cell-based, Human respiratory syncytial virus (HRSV)
Settings: human respiratory syncytial virus, HEp-2, 120 h, read-out: Human RSV-A (“Long” strain) EC50
Method in brief: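 Cytopathic-effect protection was read as ATP content (ATPlite luminescence) after a 5-day incubation. Setup: Hep-2 cells at 8,000 per well, RSV-A Long at MOI 0.1, 2-fold serial compound dilutions in duplicate. Cytotoxicity (CC50) was measured on an identical uninfected plate run in parallel.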

Row | SMILES | pEC50
1 | O=C1Nc2ccccc2C(c2ccccc2)=N[C@@H]1Nc1nnc(-c2sc3ncccc3c2N2CCOCC2)o1 [Example 180] | > 6.40
2 | O=C1Nc2ccccc2C(c2ccccc2)=NC1Nc1nnc(-c2cnccc2N2CCCCC2)o1 (stereo not drawn) [Example 134] | < 6.10
3 | O=C1Nc2ccccc2C(c2ccccc2)=NC1Nc1ccc(-c2ccncc2)nn1 (stereo not drawn) [Example 375] | < 6.10
4 | O=C1Nc2ccccc2C(c2ccccc2)=N[C@@H]1Nc1nnc(-c2ncc(C(F)(F)F)cc2N[C@H]2CCC[C@H]2O)o1 [Example 422] | 6.10 to 6.40
5 | O=C1Nc2ccccc2C(c2ccccc2)=NC1Nc1ncc(-c2ccc(F)cc2)o1 (stereo not drawn) [Example 369] | < 6.10
6 | O=C1Nc2ccccc2C(c2ccccc2)=N[C@@H]1Nc1nnc(-c2ncc(C(F)(F)F)cc2N[C@@H]2CCOC2)o1 [Example 464] | > 6.40
7 | N#Cc1ccc(-c2cnc(NC3N=C(c4ccccc4)c4ccccc4NC3=O)o2)cc1 (stereo not drawn) [Example 368] | 6.10 to 6.40
8 | COCCNc1cc(C(F)(F)F)cnc1-c1nnc(N[C@H]2N=C(c3ccccc3)c3ccccc3NC2=O)o1 [Example 305] | > 6.40
9 | O=C1Nc2ccccc2C(c2ccccc2)=N[C@@H]1Nc1nnc(-c2ncc(C3CCCCC3)cc2N2CCOCC2)o1 [Example 313] | > 6.40
10 | Cn1ncc(N2CCOCC2)c1-c1nnc(N[C@H]2N=C(c3ccccc3)c3ccccc3NC2=O)o1 [Example 178] | 6.10 to 6.40
11 | O=C1Nc2ccccc2C(c2ccccc2)=NC1Nc1nnc(CCC(F)(F)F)o1 (stereo not drawn) [Example 192] | < 6.10
12 | N#Cc1cnc(-c2nnc(N[C@H]3N=C(c4ccccc4)c4cccc(F)c4NC3=O)o2)c(N2CCOCC2)c1 [Example 361] | > 6.40
13 | O=C1Nc2ccccc2C(c2ccccc2)=N[C@@H]1Nc1nnc(-c2cnc(-n3cncn3)nc2N2CCOCC2)o1 [Example 173] | < 6.10
14 | O=C1Nc2ccccc2C(c2ccccc2)=NC1Nc1nnc(-c2ccccc2-n2cccn2)o1 (stereo not drawn) [Example 283] | < 6.10
15 | O=C1Nc2ccccc2C(c2ccccc2)=NC1Nc1nnc(-c2cn(-c3ccc(F)cn3)nc2N2CCOCC2)o1 (stereo not drawn) [Example 448] | > 6.40
16 | CN1CCC(N2CCC[C@H]2c2nnc(NC3N=C(c4ccccc4)c4ccccc4NC3=O)o2)CC1 (stereo partly drawn) [Example 228] | < 6.10
17 | O=C1Nc2ccccc2C(c2ccccc2)=N[C@@H]1Nc1nnc(-c2ncc(C(F)(F)F)cc2NC2COC2)o1 [Example 469] | > 6.40
18 | O=C1Nc2ccccc2C(c2ccccc2)=N[C@@H]1Nc1nnc(-c2ccc(C(F)(F)F)nc2N2C3CCC2COC3)o1 [Example 275] | < 6.10
19 | O=C1Nc2ccccc2C(c2ccccc2)=NC1Nc1nnc(-c2ccccc2NCc2ccccn2)o1 (stereo not drawn) [Example 235] | < 6.10
20 | O=C1Nc2ccccc2C(c2ccccc2)=NC1Nc1nnc(C2CCCC2)o1 (stereo not drawn) [Example 197] | < 6.10
21 | COc1ccc(-c2ccc(NC3N=C(c4ccccc4)c4ccccc4NC3=O)nn2)cc1 (stereo not drawn) [Example 376] | < 6.10
22 | O=C1Nc2ccccc2C(c2ccccc2)=NC1Nc1nnc(-c2ccc(F)cc2)[nH]1 (stereo not drawn) [Example 363] | < 6.10
23 | O=C1Nc2ccccc2C(c2ccccc2)=N[C@@H]1Nc1nnc(-c2cn(C3CCC3)nc2N2CCOCC2)o1 [Example 430] | > 6.40
24 | O=C1Nc2ccccc2C(c2ccccc2)=NC1Nc1nnc(-c2ccccc2OC2CCOCC2)o1 (stereo not drawn) [Example 239] | < 6.10

Row | SMILES | pEC50
25 | O=C1Nc2ccccc2C(c2ccccc2)=N[C@@H]1Nc1nnc(-c2ncc(C(F)(F)F)cc2NCc2ccco2)o1 [Example 421] | < 6.10
26 | O=C1Nc2ccccc2C(c2ccccc2)=N[C@@H]1Nc1nnc(-c2nc(-c3ccc(C(F)(F)F)nc3)sc2N2CCOCC2)o1 [Example 390] | > 6.40
27 | Cn1cc(N2CCOCC2)c(-c2nnc(N[C@H]3N=C(c4ccccc4)c4ccccc4NC3=O)o2)n1 [Example 164] | > 6.40
28 | O=C1Nc2ccccc2C(c2ccccc2)=N[C@@H]1Nc1nnc(-c2ncc(C(F)(F)F)cc2C2CC2)o1 [Example 293] | < 6.10
29 | CO[C@@H](C)CNc1sc(C(F)(F)F)nc1-c1nnc(N[C@H]2N=C(c3ccccc3)c3ccccc3NC2=O)o1 [Example 452] | > 6.40
30 | O=C1Nc2ccccc2C(c2ccccc2)=NC1Nc1nnc(-c2cccc(-n3ccnc3)c2)o1 (stereo not drawn) [Example 212] | < 6.10
31 | O=C1Nc2ccccc2C(c2ccccc2)=N[C@@H]1Nc1nnc(-c2nc(C(F)(F)F)sc2NCC2COC2)o1 [Example 475] | 6.10 to 6.40
32 | COCc1ccc2nccc(-c3nnc(N[C@H]4N=C(c5ccccc5)c5ccccc5NC4=O)o3)c2c1 [Example 409] | < 6.10
33 | CC1(Nc2cc(C(F)(F)F)cnc2-c2nnc(N[C@H]3N=C(c4ccccc4)c4ccccc4NC3=O)o2)CCOC1 (stereo partly drawn) [Example 424] | < 6.10
34 | N#Cc1ccc(-c2nnc(NC3N=C(c4ccccc4)c4ccccc4NC3=O)o2)nc1 (stereo not drawn) [Example 24] | 6.10 to 6.40
35 | N#Cc1ccc(-c2nnc(N[C@H]3N=C(c4ccccc4)c4ccccc4NC3=O)o2)c(N2CCOCC2)c1 [Example 157] | > 6.40
36 | N#Cc1ccc(-c2nnc(N[C@H]3N=C(c4ccccc4)c4ccccc4NC3=O)o2)c(-c2ccoc2)c1 [Example 319] | < 6.10
37 | O=C1Nc2ccccc2C(c2ccccc2)=N[C@@H]1Nc1nnc(-c2ncc(N3CCCC3)cc2N2CCOCC2)o1 [Example 314] | > 6.40
38 | C[C@H]1COCCN1c1ncccc1-c1nnc(NC2N=C(c3ccccc3)c3ccccc3NC2=O)o1 (stereo partly drawn) [Example 261] | < 6.10
39 | O=C1Nc2ccccc2C(c2ccccc2)=NC1Nc1nnc(-c2cccnc2N2CCCC(F)(F)C2)o1 (stereo not drawn) [Example 246] | < 6.10
40 | Cc1nc(-c2nnc(NC3N=C(c4ccccc4)c4ccccc4NC3=O)o2)ccc1F (stereo not drawn) [Example 110] | < 6.10
41 | COC(C)(C)CNc1cc(C(F)(F)F)cnc1-c1nnc(N[C@H]2N=C(c3ccccc3)c3ccccc3NC2=O)o1 [Example 416] | < 6.10
42 | O=C1Nc2c(F)cccc2C(c2ccccc2)=N[C@H]1Nc1nnc(-c2ccccc2N2CCOCC2)o1 [Example 355b] | < 6.10
43 | O=C1Nc2ccccc2C(c2ccccc2F)=NC1Nc1nnc(-c2ccc(F)cc2)o1 (stereo not drawn) [Example 379] | < 6.10
44 | COCCOc1ccc(-c2nnc(NC3N=C(c4ccccc4)c4ccccc4NC3=O)o2)cc1 (stereo not drawn) [Example 236] | < 6.10
45 | COCCN1CCCn2ncc(-c3nnc(N[C@H]4N=C(c5ccccc5)c5ccccc5NC4=O)o3)c21 [Example 438] | 6.10 to 6.40
46 | O=C1Nc2ccccc2C(c2ccccc2)=NC1Nc1ncc(-c2ccccc2)cn1 (stereo not drawn) [Example 371] | < 6.10
47 | N#Cc1c[nH]c2cc(-c3nnc(N[C@H]4N=C(c5ccccc5)c5ccccc5NC4=O)o3)ccc12 [Example 291] | < 6.10
48 | N#CCNc1cc(C(F)(F)F)cnc1-c1nnc(N[C@H]2N=C(c3ccccc3)c3ccccc3NC2=O)o1 [Example 331] | < 6.10

Row | SMILES | pEC50
49 | CC1(c2nnc(NC3N=C(c4ccccc4)c4ccccc4NC3=O)o2)CC1 (stereo not drawn) [Example 195] | < 6.10
50 | CCOC1(c2nc(-c3nnc(N[C@H]4N=C(c5ccccc5)c5ccccc5NC4=O)o3)c(N3CCOCC3)s2)CCC1 [Example 458] | > 6.40
51 | Cc1cc(-c2nnc(NC3N=C(c4ccccc4)c4ccccc4NC3=O)o2)ccc1-n1cncn1 (stereo not drawn) [Example 217] | 6.10 to 6.40
52 | COC1C2CN(c3cc(C(F)(F)F)cnc3-c3nnc(N[C@H]4N=C(c5ccccc5)c5ccccc5NC4=O)o3)CC21 (stereo partly drawn) [Example 439] | < 6.10
53 | COCc1nnc(NC2N=C(c3ccccc3)c3ccccc3NC2=O)o1 (stereo not drawn) [Example 191] | < 6.10
54 | CC(C)c1nnc(NC2N=C(c3ccccc3)c3ccccc3NC2=O)o1 (stereo not drawn) [Example 188] | < 6.10
55 | O=C1Nc2ccccc2C(c2ccccc2)=N[C@@H]1Nc1nnc(-c2nc(C3(O)CCC3)sc2N2CCOCC2)o1 [Example 455] | > 6.40
56 | COCCc1cccn2ncc(-c3nnc(N[C@H]4N=C(c5ccccc5)c5ccccc5NC4=O)o3)c12 [Example 411] | < 6.10
57 | O=C1Nc2ccccc2C(c2ccccc2)=N[C@@H]1Nc1nnc(-c2cc(C(F)(F)F)sc2N2CCOCC2)o1 [Example 383] | > 6.40
58 | O=C1Nc2ccccc2C(c2ccccc2)=NC1Nc1nnc(-c2cc(F)ccc2N2CCOCC2)o1 (stereo not drawn) [Example 119] | 6.10 to 6.40
59 | O=C1Nc2ccccc2C(c2ccccc2)=N[C@@H]1Nc1nnc(-c2ncsc2C2=CCOCC2)o1 [Example 347] | > 6.40
60 | O=C1Nc2ccccc2C(c2ccccc2)=N[C@@H]1Nc1nnc(-c2ncc(C(F)(F)F)cc2N2CCOC3CC32)o1 (mixture of isomers) [Example 466] | > 6.40
61 | O=C1Nc2ccccc2C(c2ccccc2)=N[C@@H]1Nc1nnc(-c2nc(-c3ccc(F)cn3)sc2N2CCOCC2)o1 [Example 389] | > 6.40
62 | CS(=O)(=O)c1cnc(-c2nnc(N[C@H]3N=C(c4ccccc4)c4ccccc4NC3=O)o2)c(N2CCOCC2)c1 [Example 332] | < 6.10
63 | O=C1Nc2ccccc2C(c2ccccc2)=N[C@@H]1Nc1nnc(-c2nnsc2N2CCOCC2)o1 [Example 292] | > 6.40
64 | N#Cc1ccc(-c2nnc(NC3N=C(c4ccccc4)c4ccccc4NC3=O)[nH]2)cc1 (stereo not drawn) [Example 365] | 6.10 to 6.40
65 | O=C1Nc2ccccc2C(c2ccccc2)=NC1Nc1nnc(-c2ccc(-n3cncn3)cc2N2CCOCC2)o1 (stereo not drawn) [Example 128] | 6.10 to 6.40
66 | O=C1Nc2ccccc2C(c2ccccc2)=NC1Nc1nnc(-c2cc(C(F)(F)F)cnc2N2CCOCC2)o1 (stereo not drawn) [Example 146] | < 6.10
67 | O=C1Nc2ccccc2C(c2ccccc2)=N[C@@H]1Nc1nnc(-c2nc3ccccn3c2N2CCOCC2)o1 [Example 163] | < 6.10
68 | N#CCCc1nnc(NC2N=C(c3ccccc3)c3ccccc3NC2=O)o1 (stereo not drawn) [Example 193] | < 6.10
69 | N#Cc1cc(N2CCOCC2)c(-c2nnc(N[C@H]3N=C(c4ccccc4)c4ccccc4NC3=O)o2)s1 [Example 323] | > 6.40
70 | O=C1Nc2ccccc2C(c2ccccc2)=N[C@@H]1Nc1nnc(-c2ncc(C3=CCCCC3)cc2N2CCOCC2)o1 [Example 312] | 6.10 to 6.40
71 | O=C1Nc2ccccc2C(c2ccccc2)=N[C@@H]1Nc1nnc(-c2ccc(F)cc2N2CC3CCC(C2)O3)o1 [Example 288] | 6.10 to 6.40
72 | C[C@@H]1CN(c2cc(C#N)cnc2-c2nnc(N[C@H]3N=C(c4ccccc4)c4ccccc4NC3=O)o2)CCO1 [Example 326] | 6.10 to 6.40
